Measurements published in US20200188297A1, “LXR Agonist in Topical Ophthalmic Formulation for Treatment of Dry-Eye Disorder” (eyeNOS, Inc., priority 2018, published 2020).
Where two headings read alike, the source gives them in different places.

Columns and labels:
retinoid X receptor = conditions: read-out: EC50 for activation of the retinoid X receptor; cited from earlier work
[1] = test system: liver X receptors (LXRα, LXRβ); conditions: cited from earlier work
[2] = test system: human corneal epithelial cells (HCE-T); experiment: Multiplex cytokine expression analysis, LPS-induced secretion; assay type: cell-based; conditions: LPS 10 ng/ml, preincubation with compound
Experimental: The anti-inflammatory effects of T0901317 were studied on in-vitro cell culture of human corneal epithelial cells (HCE-T). […] Multiplex cytokine expression analysis was performed to determine the anti-inflammatory effects of T0901317 (at 200 nM). […] Lipopolysaccharide (LPS)-induced (10 ng/ml) secretion of IL-17, IL-18, and IFNγ was also examined. […] Topical application is not expected to result in activation of the pregnane X receptor (PXR), supporting the notion that the anti-inflammatory effects observed here, both in-vivo and in-vitro, can be attributed to LXR activation.

[3] = test system: human corneal epithelial cells (HCE-T); experiment: Multiplex cytokine expression analysis, hyperosmolar stress insult; assay type: cell-based; conditions: 200 nM, preincubation 1 hour, 600 mOsm for 20 hours
Experimental: The anti-inflammatory effects of T0901317 were studied on in-vitro cell culture of human corneal epithelial cells (HCE-T). HCE-T cells were grown in DMEM/F12 (1:1), 5% fetal bovine serum, penicillin-streptomycin, […] insulin, 10 ng/ml human recombinant epidermal growth factor and 0.5% dimethyl sulfoxide in 5% CO2 at 37° C. To simulate dry-eye conditions, the cells were exposed to hyperosmolar stress insult as described in Chen et al, “Hyperosmolarity-Induced Cornification of Human Corneal Epithelial Cells Is Regulated by JNK MAPK” (February 2008) Investigative Ophthalmology & Visual Science, 49(2):539-549. Confluent HCE-T were passaged into 12-well plates containing KSFM media (keratinocyte-SFM media) for 24 hours, and then NaCl was added to wells in concentrations to produce media osmolarities in the range of 350-800 mOsm. Multiplex cytokine expression analysis was performed to determine the anti-inflammatory effects of T0901317 (at 200 nM).

[4] = test system: human corneal epithelial (HCE-T) cells; experiment: ZO-1 immunocytochemistry (barrier function) under hyperosmolar stress; assay type: cell-based; conditions: 0.05 μM in DMSO, pre-treated one hour; 50 mM NaCl overnight; FIG. 20
Experimental: The corneal epithelium serves as a physiological barrier. However, inflammation and the ensuing oxidative stress can impair barrier function and contribute to the exacerbation of inflammatory processes and increase susceptibility to other ocular surface conditions, such as corneal keratitis. The effect of ouabagenin on the barrier function of human corneal epithelial (HCE-T) cells was tested in in-vitro experiments. The cells were seeded at 25,000 cells/well in 8-chamber slides. Cells were incubated for 3 days at 37° C. until confluent. Cells were pre-treated with DMSO (vehicle) or ouabagenin (0.05 μM in DMSO). One hour later, cells received treatment of 0 (media), 25, 50, or 75 mM NaCl to mimic hyperosmolar conditions. Cells were incubated overnight at 37° C.
Zona occludens 1 (ZO-1) is a tight junction protein that is involved in the barrier function of corneal epithelium. The presence of ZO-1 (or absence thereof) is an indicator of the health of this barrier. In this experiment, immunocytochemistry for ZO-1 was performed on the HCE-T cells after the overnight incubation. Slides were imaged under a fluorescent microscope.

For `O=S(=O)(c1ccccc1)N(CC(F)(F)F)c1ccc(C(O)(C(F)(F)F)C(F)(F)F)cc1` [T0901317], the EC50 (retinoid X receptor) is listed as 5 µM, the LXR subtype selectivity [1] is listed as “selective for the LXRα subtype” and the “LPS-induced secretion of IL-17” value ([2]; FIG. 19D) is listed as “suppressed”. The “LPS-induced secretion of IL-18” value ([2]; FIG. 19E) was “suppressed”, the “LPS-induced secretion of IFNγ” value ([2]; FIG. 19F) was “suppressed” and the “hyperosmolar stress-induced secretion of IL-12” value ([3]; FIG. 19B) was “fully suppressed”. The “hyperosmolar stress-induced secretion of IL-17” value ([3]; FIG. 19C) was “fully suppressed”.
In the case of `C[C@]12C[C@@H](O)[C@H]3[C@@H](CC[C@]4(O)C[C@@H](O)C[C@@H](O)[C@]34CO)[C@@]1(O)CC[C@@H]2C1=CC(=O)OC1` [ouabagenin], the LXR subtype selectivity ([1]; literature reports) is listed as “LXRβ-subtype specific agonist” and the “ZO-1 at the cell junctions (barrier function)” value [4] is listed as “protected against this loss of ZO-1 barrier function”.
